The record followed here is a melting point compilation (Tetko et al.; mined from patent text by program, amines drawn as free bases though some values may be those of a salt).

`Clc1nc(OC(Cl)(Cl)Cl)cc(C(Cl)(Cl)Cl)n1` showed a melting point of 67 to 69 °C.

Take `COC(=O)CCC(=O)N1CCc2cc(S(=O)(=O)N3CCN(c4ccc(F)cc4)CC3)ccc21`: the melting point lay in the range of 213 to 215 °C.

As to `Cc1cc(C#N)cc(C)c1Nc1nc(Nc2ccc(C#N)cc2)nc(Cl)c1Br`, the melting point was 259 to 260 °C.

As for `CCOC(=O)c1cc(C#N)c(C)nc1Nc1ccccc1`, the melting point lay in the range of 133 to 135 °C.

Compound `COc1c(I)cc(-c2c3ccccc3cc3sc4ccccc4c23)cc1I` came in with a melting point of 228 to 230 °C.

The compound `CCOC(=O)c1c(Cn2ccnn2)nc2cc(OC)c(OC)cc2c1-c1ccc(OC)c(OC)c1` showed a melting point of 195 to 196 °C.

As for `COc1ccc2c(c1)c1c(n2C(=O)c2ccc(Cl)cc2)CCCC1C(=O)O` (stereo not given), the melting point was 181 to 185 °C.

Take `CC(C)(C#N)C1(c2ccc(Cl)cc2)CCC1`: the melting point lay within 73 to 75 °C.

In the case of `COc1ccc(-c2c[nH]cc2C#N)cc1OC`, the melting point is 212 to 214 °C.

With `O=C(O)C1CNc2cc(C(F)(F)F)ccc2O1` (stereo not given), the melting point lay in the range of 105 to 107 °C.

`CC(=O)OCC(=O)NCc1cccc2c1C(=O)N(C1CCC(=O)NC1=O)C2=O` (stereo not given) returned a melting point of 108 to 110 °C.

As to `CCCCCCCCCCNC(=O)CC#N`, the melting point was 78.5 to 80 °C.

Turning to `O=C(N1CCN(c2ccncc2Cl)CC1)N1CCN(S(=O)(=O)c2ccc(Br)cc2)CC1`, the melting point was in the range of 194 to 195 °C.

Regarding `O=C(Nc1cc(S(=O)(=O)NC(CO)CO)sc1Cl)c1cnn2c(C(F)F)cc(-c3ccc(C(F)(F)F)cc3)nc12`, the melting point is 241 °C.

For the compound `Cc1cccc(-c2[nH]nnc2-c2ccc3c(c2)N(CCN2CCOCC2)C(=O)CO3)n1`, the melting point was 150 °C.

`CCC(=O)N1CCC(=NO)c2cc(F)ccc21` registered a melting point of 126 to 128 °C.

`CCCCCCCCOC(C)c1ccc(-c2ccc(C(=O)O)cc2)cc1` (single isomer, unassigned; (+)) showed a melting point of 139 to 140 °C.

`NNc1cc2c(nn1)CCN(C(=O)CCCc1ccccc1)C2` had a melting point of 203 to 205 °C.

With `CCc1cc(C(=O)Nc2c(C)cccc2C)no1`, the melting point came out at 82 °C.

Take `Cc1nc2ccccc2cc1NC(=S)N1CCN(c2cc(F)cc(F)c2)CC1`: the melting point was 211 to 213 °C.

`CC(C)(C)C(=O)Nc1cc2c(O)nc[nH]c-2n1` registered a melting point of 295 °C.

In turn, `CN1C(=O)c2cnc(-c3ccccc3)nc2Nc2ccccc21` registered a melting point of 227 °C.

The compound `COc1ccc(C#CCO)c2c1c(CCN(C)C)cn2C` yielded a melting point of 101 to 104 °C.

The compound `COc1ccc(CNC(=O)CCC(=O)c2ccc3[nH]c4ncc(Cl)cc4c3c2)cc1` showed a melting point of 228 °C.

The compound `CCCc1cc2c(cc1O)CCO2` displayed a melting point of 73 to 74 °C.

Compound `CCOc1ccc(-c2ccc(-c3ccc(C4CCC(c5c(F)cccc5F)=N4)cc3)cc2)s1` (stereo not given) returned a melting point of 128 to 134 °C.

As to `c1ccc2c(c1)Nc1cc(-c3csc(CN4CCCCC4)n3)ccc1S2`, the melting point was in the range of 186 to 188 °C.

For the compound `COc1ccccc1[C@@]1(O)C[C@@H](C)C[C@@H]2CN(Cc3ccccc3)C[C@@H]21` (racemic), the melting point turned out to be 120 °C.

Take `CCCCCCCCCCCCOC(=O)CCC(=O)c1ccc(NCc2ccc3ccc4nc(C)[nH]c(=O)c4c3c2)cc1`: the melting point lay within 213 to 214 °C.

The compound `Nc1nc2c(ncn2OCCCCP(=O)(O)O)c(=O)[nH]1` returned a melting point of 208 °C.

`O=[N+]([O-])c1ccccc1SN(CCO)CCO`: the melting point lay in the range of 82 to 86 °C.

Compound `Oc1ccc(-c2nc3ccc(O)cc3c(-c3ccc(F)cc3)c2Cl)cc1` came in with a melting point of 295 to 296 °C.

As to `O=c1nc(-c2cccc(CSCc3ccccc3)n2)sc2ccccc12`, the melting point lay within 126 to 128 °C.

Regarding `COc1cc(Sc2ccccc2CCl)ccc1Cl`, the melting point lay in the range of 57 to 59 °C.

`CCCCSC1(SCCCC)CCC2C3CCC4=CC(=O)C=CC4(C)C3(F)C(O)CC21C` (stereo not given) gave a melting point of 160 to 162 °C.

Broadly, the melting point is the temperature, or range, at which the solid turns liquid.
